According to patent publication US4963553A, “4-[(substituted) alkylcarbonyl]-4,5-dihydro- and -4,5,6,7-tetrahydro-7-[(substituted)phenyl]pyrazolo[1,5-a]pyrimidines” (American Cyanamid Co., priority 1988, dated 1990):
Counter-ions that a name gives are not always drawn.

Key:
[1] = tested on: mice (tetrabenazine-induced depression); experiment: Tetrabenazine-induced depression (antidepressant); type: in vivo, mouse; design: key: Active: A compound is considered active if 3 or more of 10 mice are protected against the tetrabenazine-induced effects; conditions: 25 mg/kg, oral, 10 mice
Protocol: The compounds of the invention are useful as antidepressant agents in warm-blooded animals as verified in the following tests. First, the antidepressant properties of these compounds were tested by measuring their ability to counteract depression induced in animals by the administration of tetrabenazine methanesulfonate. Each test compound was administered orally to 10 mice at a dose of 25 mg/kg of body weight. Thirty minutes later, tetrabenazine methane sulfonate was administered intraperitoneally to each mouse at a dose of 39 mg/kg of body weight, which dose is known to depress markedly the exploratory behavior of normal mice. Thirty minutes later the mice were tested for their exploratory behavior as described by E. Greenblatt and A. C. Osterberg, Toxicology and Applied Pharmacology, 7. 566-578 (1965). A compound is considered active if 3 or more of 10 mice are protected against the tetrabenazine-induced effects.

[2] = tested on: mice (hypoxic environment); experiment: Hypoxic survival test; type: in vivo, mouse (Royal Hart); conditions: intraperitoneal, 10% oxygen, 5 minutes
In short: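 Groups of 20 Royal Hart mice (6 weeks old) dosed i.p. with compound in saline at 1–200 mg/kg, 30 minutes before exposure to 10% oxygen/90% carbon dioxide; survival scored after 5 minutes. Saline and physostigmine (0.125 mg/kg i.p.) groups run in parallel.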

[3] = tested on: mice (anoxic induced amnesia); experiment: Passive Avoidance Anoxic Induced Amnesia Test; type: in vivo, mouse (Swiss-Webster, middle-aged); conditions: intraperitoneal, vs saline control
Excerpt: A useful in vivo test associated with decreased neural function in mammals is the Passive Avoidance Anoxic Induced Amnesia Test. This test is used to determine the attenuation of anoxic induced amnesia in mice treated with drug, as compared to saline treated control animals with no drug. A shock-motivated, single trial, step-through passive avoidance procedure is used. Groups of 25 Swiss-Webster, middle-aged mice (9 months of age) are placed singly in the front chamber of a 2-chamber box and are allowed to voluntarily cross into the rear chamber. As soon as the mouse enters the rear chamber, a door automatically traps the animal and a mild electric shock (0.4 mA for 4 seconds) is delivered to its feet. Following the foot shock, the mice are initially placed in an anoxic environment (0% oxygen) for 12 seconds, which quickly induces unconsciousness. […] All testing is performed 24 hours later, and in all cases the mice appear fully recovered from the previous anoxic/hypoxic treatment. […] Control animals are injected intraperitoneally only with saline at 0.01 ml/g of body weight. The latent period prior to entering the rear chamber is recorded for both training and testing sessions. The greater the memory of being shocked, the greater the reluctance to enter into the rear chamber and the higher will be the latent period prior to re-entry. […]

[4] = tested on: Spontaneously Hypertensive Rats; experiment: Hypotensive activity: mean arterial blood pressure in spontaneously hypertensive rats; type: in vivo, rat (Okamoto strain, male); conditions: SHR, gavage, 100 mg/kg or less, two doses 24 h apart, measured at 28 hours; average MABP of rats used 160±1.5 mm; 100 mg/kg
In short: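 Male 16-week-old Okamoto SHR (baseline MAP 160±1.5 mm Hg) dosed by gavage at ≤100 mg/kg in 2% starch with 25 ml/kg 0.9% NaCl load, redosed at 24 h without saline; mean arterial pressure measured at 28 h after first dose.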

[5] = tested on: Brain-Specific Receptors of Rats (3H-benzodiazepine binding); experiment: Inhibition of the binding of 3H-benzodiazepine to brain-specific receptors of rats; design: species or system rat (Wistar strain, whole cortex); conditions: rat cortex P2 fraction, 3H-diazepam 1.5 nM or 3H-flunitrazepam 1.0 nM
Excerpt: Another test utilized for the determination of anxiolytic activity is the measurement of the ability of a test compound to inhibit the binding of tritiated benzodiazepines to brain-specific receptors of mammals. A modification of the method described by R. F. Squires, et al., Nature, 266 (21), 732 (Apr., 1977) and H. Mohler, et al., Science, 198, 849 (1977) was employed. […] The test compounds were solubilized in dimethylformamide, acetic acid, ethanol or hydrochloric acid. […] (1) resuspended in twice the original volume in hypotonic 50 mM Tris.HCl (pH 7.4), or (2) resuspended in one-half the original volume in hypotonic 10 mM Tris.HCl (pH 7.4) and frozen (-20° C.) until time. of use. Frozen P2 preparations were thawed and resuspended in four times the original homogenizing volume at time of assay. […] Incubation for 30 minutes proceeded in ice and was terminated by filtration, under vacuum, through glass fiber filters. The filters were washed twice with 5 ml of ice-cold 50 mM Tris.HCl (pH 7.4) and placed in scintillation vials. After drying at 50°-60° C. for 30 minutes, 10 ml of diluent was added and the radioactivity determined in a scintillation counter. Inhibition of binding was calculated by the difference between total binding and binding in the presence of test compound, divided by the total binding, X 100.

[6] = biological target: T1, human platelet membranes (3H-imipramine receptor) (Homo sapiens, UniProt P31645); experiment: 3H-imipramine binding to human platelet membranes
T1 construct: Fresh human platelet concentrates (less than 48 hours old) were obtained from the New York Blood Center; tissue New York Blood Center; host or cells: human blood platelets, membranes
Protocol: The activity of the compounds of the invention as antidepressant agents was further verified# in the following test which measures the ability of a test compound to inhibit 3H-imipramine binding to human platelet membranes.
Platelet membranes were obtained using the procedure described by Wennogle, L. et al., Pharmac. Biochem. Behav., 15. 975 (1981). Fresh human platelet concentrates (less than 48 hours old) were obtained from the New York Blood Center. These concentrates were prepared in a citrate-dextrose anticoagulant using standard techniques. Platelets were washed twice by centrifugation (2500×G, 10 minutes) in 50 volumes of an antiprotease buffer containing 0.005M Tris potassium chloride, 0.12M sodium chloride, 0.05M Tris pH 7.5, 0.025 Units/ml aprotinin, 0.05 μg/m pepstatin, 2×10^-5 bacitracin, 3 mM ethylenediaminetetraacetic acid and 1.0 mM ethyleneglycol-bis (β-aminoethylether)N,N'-tetra-acetic acid. […] All procedures were conducted at 0° C. using plastic laboratory-ware throughout the platelet membrane preparation. Platelets were resuspended in 20 volumes of buffer and sonicated 3 times using 10 second bursts of a Branson sonifier (cell disrupter 350) at setting 6 (standard 3/4 inch horn), keeping the sample on ice throughout the procedure. Platelet membranes were then washed twice at 18,000×G for 20 minutes with 50 volumes of the antiprotease buffer and resuspended to 3.0 mg. protein/ml using the Bradford protein analysis with bovine gamma globulin as standard. Membranes were used immediately or stored frozen in liquid nitrogen.
The displacement of 3H-imipramine binding to human platelet membranes was performed essentially as described by Paul, S. M., et al., Life Sci., 953 (1980) with the following modifications. Membranes (0.3 mg protein) were suspended in antiprotease buffer with both […] 3H-imipramine (New England Nuclear) and displacing drug or buffer in a total volume of 250 #1 in glass test tubes. Samples were incubated for 90 minutes at 0° C., then diluted to 5 ml in 0.12M sodium chloride, 0.005M potassium chloride, 0.05M Tris pH 7.5 (wash buffer) and immediately filtered through GF/B Whatman Filters and washed twice with 5 ml of wash buffer. Filters were counted in a liquid scintillation counter after addition of Beckman HP Scintillant.
Non-specific binding of 3H-imipramine was defined as that fraction (generally 35%) of radioactivity that was not displaced by 10 μM desmethylimipramine. Specific binding was determined by subtraction of this non-specific level from values for total 3H-imipramine binding which were measured by incubating 3H-imipramine in the absence of displacing drug. Compounds were tested in duplicate test tubes at a concentration of 10 μM. Compounds which inhibited binding by more than 50% were considered to be active.

[7] = tested on: rats; experiment: Non-conditioned passive avoidance conflict procedure in rats (anxiolytic); type: in vivo, rat (Wistar strain, male); conditions: 25 mg/kg, oral, 60 minutes
Protocol: A test used to assess antianxiety effects is the non-conditioned passive avoidance procedure described by J. R. Vogel, B. Beer and D. E. Clody, "A Simple and Reliable Conflict Procedure for Testing Antianxiety Agents", Psychopharmacologia, 21, 1-7 (1971). A conflict situation is induced in rats by a modification of this method.
Groups of 8 naive, Wistar strain male rats (Royalhart Farms, New Hampton, N.J.), weighing 200-240 g each, were deprived of water for 48 hours. The test compounds were administered in single or graded, oral doses, suspended in 2% starch with 5% polyethylene glycol in distilled water and one drop of polysorbate 80. Control animals received the vehicle alone. At 60 minutes each rat was placed in an individual clear plastic chamber. Tap water was available ad libitum from a nipple located in a black box off the main chamber. A 0.7 milliampere AC shocking current was established between the stainless steel grid floor and the tap. After 20 licks of non-shocked drinking, a 2 second shocking current was administered to the rat. This ratio of 20 licks of non-shocked drinking followed by a 2 second shock was continued for a total of 3 minutes. The number of shocks taken by each rat during the 3 minute interval was recorded and compared to a control group. […]

[8] = Mus musculus, ip, 5 min, 100 mg/kg, read-out: % Survivors

T1 sequence (P31645 whole entry): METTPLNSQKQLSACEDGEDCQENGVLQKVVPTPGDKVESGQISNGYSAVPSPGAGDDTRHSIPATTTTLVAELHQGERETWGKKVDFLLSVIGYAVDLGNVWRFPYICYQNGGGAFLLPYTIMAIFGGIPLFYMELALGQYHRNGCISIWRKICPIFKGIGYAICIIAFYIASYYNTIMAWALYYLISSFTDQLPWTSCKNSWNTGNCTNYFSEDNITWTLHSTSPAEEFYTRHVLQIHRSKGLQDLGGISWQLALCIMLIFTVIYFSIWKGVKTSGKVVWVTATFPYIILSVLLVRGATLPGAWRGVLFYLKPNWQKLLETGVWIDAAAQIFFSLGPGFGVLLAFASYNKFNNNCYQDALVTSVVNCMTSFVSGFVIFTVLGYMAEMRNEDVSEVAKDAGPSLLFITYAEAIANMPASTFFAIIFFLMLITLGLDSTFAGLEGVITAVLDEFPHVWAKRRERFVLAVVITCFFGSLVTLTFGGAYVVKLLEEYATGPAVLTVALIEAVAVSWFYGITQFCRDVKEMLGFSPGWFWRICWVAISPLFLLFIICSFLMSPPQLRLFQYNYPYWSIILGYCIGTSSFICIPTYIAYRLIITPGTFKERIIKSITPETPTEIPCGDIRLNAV

SMILES: N#Cc1cnn2c1N(C(=O)CN1CCN(Cc3ccccc3)CC1)CC=C2c1cccc(C(F)(F)F)c1 [Example 17, 4,5-Dihydro-4-[[4-(phenylmethyl)-1-piperazinyl]acetyl]-7-[3-(trifluoromethyl)phenyl]pyrazolo[1,5-a]pyrimidine-3-carbonitrile]
- Result (protection against tetrabenazine-induced depression) [1]: Active
- % Survivors ([2]; 100 mg/kg): 48%
- responders at 10 mg/kg ([2]; Mus musculus, ip, 5 min, 10 mg/kg, read-out: % Survivors): 40%
- % Improvement ([3]; 100 mg/kg): 65%
- % Improvement ([3]; 200 mg/kg): 93%
- MABP/mmHg (mean arterial blood pressure) [4]: 120 mmHg
- % Inhibition (3H-benzodiazepine binding) [5]: 17%

SMILES: COc1cccc(CN2CCN(CC(=O)N3CC=C(c4cccc(C(F)(F)F)c4)n4ncc(C#N)c43)CC2)c1 [Example 20, 4,5-Dihydro-4-[[4-[(3-methoxyphenyl)methyl]-1-piperazinyl]acetyl]-7-[3-(trifluoromethyl)phenyl]pyrazolo[1,5-a]pyrimidine-3-carbonitrile]
- Result (protection against tetrabenazine-induced depression) [1]: Active
- inhibition at 10 µM [6]: 78%

SMILES: N#Cc1cnn2c1N(C(=O)CN1CCN(Cc3ccc4c(c3)OCO4)CC1)CC=C2c1cccc(C(F)(F)F)c1 [Example 23, 4-[[4-(1,3-Benzodioxol-5-ylmethyl)-1-piperazinyl]acetyl]-4,5-dihydro-7-[3-(trifluoromethyl)phenyl]pyrazolo[1,5-a]pyrimidine-3-carbonitrile]
- Result (protection against tetrabenazine-induced depression) [1]: Active
- inhibition at 10 µM [6]: 81%

SMILES: N#Cc1cnn2c1N(C(=O)CN1CCN(CCC3CCCCC3)CC1)CC=C2c1cccc(C(F)(F)F)c1 [Example 41, 4-[[4-(2-Cyclohexylethyl)-1-piperazinyl]acetyl]-4,5-dihydro-7-[3-(trifluoromethyl)phenyl]pyrazolo[1,5-a]pyrimidine-3-carbonitrile]
- Result (No. of shocks per 3 min.) [7]: 18.0 shocks per 3 min.

SMILES: COc1cccc(CN2CCN(CC(=O)N3CC=C(c4cccc(C(F)(F)F)c4)n4ncc(C#N)c43)CC2)c1.Cl.Cl [Example 79, 4,5-Dihydro-4-[[4-[(3-methoxyphenyl)methyl]-1-piperazinyl]acetyl]-7-[3-(trifluoromethyl)phenyl]pyrazolo[1,5-a]pyrimidine-3-carbonitrile, dihydrochloride]
- Result (protection against tetrabenazine-induced depression) [1]: Active

SMILES: CC1=C(c2ccc(Cl)cc2)n2ncc(C#N)c2N(C(=O)CN2CCN(Cc3cccc(Cl)c3)CC2)C1 [Example 133, 7-(4-Chlorophenyl)-4-[[4-[(3-chlorophenyl)methyl]-1-piperazinyl]acetyl]-4,5-dihydro-6-methylpyrazolo[1,5-a]pyrimidine-3-carbonitrile. dihydrochloride]
- responders at 100 mg/kg [2, 8]: 62%
- responders at 200 mg/kg ([2]; Mus musculus, ip, 5 min, 200 mg/kg, read-out: % Survivors): 73%
- % Improvement ([3]; 10 mg/kg): 66%

SMILES: CC(c1ccccc1)N1CCN(CC(=O)N2CC=C(c3cccc(C(F)(F)F)c3)n3ncc(C#N)c32)CC1 (stereo not shown) [Example 141]
- responders at 25 mg/kg ([2]; Mus musculus, ip, 5 min, 25 mg/kg, read-out: % Survivors): 4%
- % Improvement ([3]; 25 mg/kg): 39%

SMILES: N#Cc1cnn2c1N(C(=O)CN1CCN(Cc3cnn(-c4ccccc4)n3)CC1)CC=C2c1cccc(C(F)(F)F)c1 [Example 146]
- responders at 100 mg/kg [2, 8]: 52.5%
- % Improvement ([3]; 100 mg/kg): 92%

SMILES: N#Cc1cnn2c1N(C(=O)CN1CCN(Cc3ccccc3)CC1)CC=C2c1ccccc1 [Example 147, 4,5-Dihydro-7-phenyl-4-[[4-(phenylmethyl)-1-piperazinyl]acetyl]pyrazolo[1,5-a]pyrimidine-3-carbonitrile]
- responders at 100 mg/kg [2, 8]: 50%
- % Improvement ([3]; 25 mg/kg): 45%
